Reference: EPA's ToxValDB 9.5 (doi:10.2903/j.efsa.2014.3560)
Values after ≈ are worked out from the molar mass of the structure shown.

Key:
[1] = test system: Rattus norvegicus; settings: for NOAEL: reproduction developmental; for LD50: acute, oral, mortality
[2] = test system: Anas platyrhynchos
[3] = test system: Apis mellifera; settings: acute, duration: 48 hours, mortality
[4] = test system: Bibionidae; settings: chronic/long-term; duration: 28 days; M/F; development
[5] = test system: Canidae; settings: chronic; duration: 1 years; oral; Dog Other; clinical signs
[6] = test system: Colinus virginianus; settings: acute, oral, mortality
[7] = test system: Lepomis macrochirus; settings: acute; duration: 96 hours; mortality
[8] = test system: Pimephales promelas; settings: chronic/long-term
[9] = test system: Tagia sp.
[10] = test system: Aphidius rhopalosiphi; assay: LR50; higher = less toxic; settings: not reported; mortality
[11] = test system: Typhlodromus pyri; assay: LR50; higher = less toxic; settings: chronic/long-term; duration: 7 days; mortality

## CC1(C)C(C=C(Cl)C(F)(F)F)C1C(=O)OC(C#N)c1cccc(Oc2ccccc2)c1 (stereo not drawn) [alpha-Cyhalothrin]
[1]
  NOAEL: 0.125 mg/kg-day
[1]; body weight
  NOAEL: 0.5 mg/kg-day

## CC1(C)[C@H](C(=O)O[C@H](C#N)c2cccc(Oc3ccccc3)c2)[C@@H]1/C=C(\Cl)C(F)(F)F [gamma-Cyhalothrin]
[2]; short-term, oral, feed, mortality
  LD50: > 429 mg/kg-day
[3]; dermal
  LD50: 0.005 µg/piece
[3]; oral, unspecified
  LD50: 4.2 µg/piece
[4]
  NOEC: 0.0469 µg/L
[5]
  NOAEL: 0.5 mg/kg-day
[6]; diet
  LD50: 225 mg/kg-day
[6]
  LD50: > 2000 mg/kg-day
[7]
  LC50: 0.0354 ng/mL (≈ 0.0787 nM)
[8]
  NOEC: 0.0155 µg/L
[1]; F
  LD50: > 55 mg/kg-day
[1]; M
  LD50: > 50 mg/kg-day
[1]; body weight
  NOAEL: 0.5 mg/kg-day
[9]; acute, duration: 14 days, mortality
  LC50: > 1300 mg/kg
[9]; chronic/long-term, reproduction
  NOEC: 0.5 mg/kg
[10]
  LR50: 0.23 g/ha
[11]
  LR50: 0.0006 g/ha

## CC1(C)[C@H](/C=C(\Cl)C(F)(F)F)[C@@H]1C(=O)O[C@@H](C#N)c1cccc(Oc2ccccc2)c1 [lambda-Cyhalothrin]
[2]; reproductive, reproduction
  NOEC: 1.35 mg/kg-day
[5]
  NOAEL: 0.5 mg/kg-day
